Measured values taken from paper PMC8390552, “Helix 12 stabilization contributes to basal transcriptional activity of PXR” (The Journal of Biological Chemistry, 2021).
Substitutions are numbered along the chain they refer to.

Experiments:
WT PXR = biological target: T1, WT PXR (Homo sapiens, UniProt O75469); experiment: Reporter gene assay (p3A4-pGL3, CYP3A4 promoter) in COS-1 cells expressing WT PXR; conditions: 1 μM ligand, without PGC1α (Fig. S7)
T1 sequence (O75469 1-434): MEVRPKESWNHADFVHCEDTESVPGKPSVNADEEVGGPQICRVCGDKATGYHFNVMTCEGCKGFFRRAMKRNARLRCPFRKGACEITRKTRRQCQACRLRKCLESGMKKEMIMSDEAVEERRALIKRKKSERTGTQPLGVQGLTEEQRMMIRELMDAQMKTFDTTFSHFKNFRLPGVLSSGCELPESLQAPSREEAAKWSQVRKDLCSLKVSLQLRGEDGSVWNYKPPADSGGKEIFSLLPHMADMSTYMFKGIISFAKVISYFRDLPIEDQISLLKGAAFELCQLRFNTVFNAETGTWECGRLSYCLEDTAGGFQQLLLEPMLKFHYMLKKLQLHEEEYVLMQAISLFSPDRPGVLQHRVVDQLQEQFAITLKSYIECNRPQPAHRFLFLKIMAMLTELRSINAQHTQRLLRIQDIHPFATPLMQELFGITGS
Procedure: (§1) COS-1 cells were cultured in Dulbecco's Modified Eagle medium (DMEM, Fujifilm Wako Pure Chemical) supplemented with 10% fetal bovine serum (FBS, GE Healthcare), MEM nonessential amino acids, and antibiotic-antimycotic (Thermo Fisher Scientific). Twenty-four hours after seeding, the culture medium was replaced with prewarmed DMEM without FBS, and plasmids were transfected with Lipofectamine 3000 (Thermo Fisher Scientific) according to the manufacturer’s instructions.
(§2) Firefly luciferase luminescence was normalized to Renilla luciferase luminescence.

PXR-F420A = biological target: T2, PXR-F420A (Homo sapiens, UniProt O75469, F420A); experiment: Reporter gene assay (p3A4-pGL3, CYP3A4 promoter) in COS-1 cells expressing PXR-F420A; conditions: 1 μM ligand, without PGC1α (Fig. S7)
T2 sequence (O75469 1-434 F420A): T1 sequence (O75469 1-434) with F420A
Procedure: as §1, §2

Clc1ccccc1C(c1ccccc1)(c1ccccc1)n1ccnc1 [clotrimazole, Clotrimazole]
Induction of reporter activity, WT PXR (WT PXR): weak induction | Induction of reporter activity, PXR-F420A (PXR-F420A): but not for PXR-F420A
